From patent publication US11179455B2, “Use of a growth hormone secretagogue peptide as a vaccine adjuvant” (priority 2016, dated 2021)
Bridge positions count the residues as written; N and C are the ends. Square brackets hold non-standard residues; d marks the D form. Ends that are not written are not given here.

Legend:
OVA [1] = test: Humoral immune response against OVA in mice, A233 co-administered; format: in vivo, BALB/c mice; conditions: i.p.; 5 μg OVA + 10 μg A233/animal, Freund's adjuvant; vs OVA alone; day 22
Experimental: To evaluate whether the peptide A233 exerts an adjuvant effect on OVA, 18 female BALB/c mice were used. Mice received 150 μL of immunogen in all groups, by i.p route, which was given to the animals on days 1 and 15 of the immunization schedule. Blood samples were taken at days 0 (preimmune serum), 8, 15, 22, 36, 43 and 50. The titers of total IgG present in the sera were evaluated. The animals were immunized with 5 μg OVA/animal and 10 μg A233/animal (Group 2), or with 5 μg of OVA/animal (Group 3). The control group was injected with PBS (Group 1). All immunogens were emulsified with Freund's adjuvant.

my32 = test: Anti-my32 IgM response to P0-my32 in tilapia; format: in vivo, Oreochromis niloticus; conditions: i.p., day 28; for Anti-my32 IgM antibody titers: P0-my32 1 μg/g co-administrated with 20 μg peptide, Montanide ISA 50, vs P0-my32
Text: (§1) The chimeric protein P0-my32 was generated by cloning the complementary deoxyribonucleic acid (cDNA) encoding a 35 amino acid peptide of the L. salmonis P0 ribosomal protein fused to the N-terminal end of the cDNA encoding the my32 protein of the same ectoparasite (Carpio et al., 2013; Exp. Parasitol 135: 188-199), in a vector designed for the induced expression of genes of interest in the host bacterium E. coli. This protein was produced in the bacterium and purified, as a fusion protein with a tail of histidine, by metal chelate affinity chromatography.
(§2) For the accomplishment of the immunization experiment, 6 study groups of male juveniles of Oreochromis niloticus, were formed, with 15 animals each. In all groups, the immunogen was administered by i.p. route, adjuvanted with Montaide ISA 50.
(§3) The experimental groups received the following immunogens:
(§4) Group 2: P0-my32 (1 μg/g of fish weight)
(§5) Group 3: P0-my32 (1 μg/g of fish weight) co-administrated with 20 μg GHRP-6
(§6) Group 4: P0-my32 (1 μg/g of fish weight) co-administrated with 20 μg A233
(§7) Group 5: P0-my32 (1 μg/g of fish weight). The fish in this group were fed with feed formulated with 100 μg of GHRP-6 per kg of feed, twice daily, for one week before and one week after the administration of my32 in injections.
(§8) During the course of the experiment, the fish in groups 1 to 4 were fed twice daily with a balanced unmedicated commercial formula, at the rate of 1% of their body weight. Immunizations were performed on days 0 and 14 of the schedule. Blood samples were taken at days 0, 21, 28 and 35 from the start of the experiment.

P0 [2] = test: Anti-P0 IgM response to P0-TT in clarias; format: in vivo, Clarias gariepinus; conditions: i.p.; P0-TT 1 μg/g + 20 μg peptide per animal, Montanide ISA 50; vs P0-TT without peptide; day 28
Experimental: […]. For the experiment, 4 study groups of C. gariepinus were formed, with 12 animals in each one. These animals were immunized by i.p. route with 1 μg of the P0-TT protein per gram of animal weight (Group 2) or with the same dose of the chimeric protein P0-TT (1 μg/g of animal weight) co-administered with 20 μg of either GHRP-6 or A233 per animal (Groups 3 and 4, respectively), in a total volume of 120 μL. The control group (Group 1) received the same volume of PBS. The immunogens corresponding to all groups were emulsified with Montanide ISA 50 oily adjuvant. The immunization was performed under the same conditions, on days 0 and 14 of the administration schedule. Blood samples were taken at days 0, 21, 28 and 35 counted from the start of the experiment.

tilapia larvae = conditions: immersion baths; cited from earlier work
P0 [3] = test: Anti-P0 IgM response to P0-my32 in tilapia; format: in vivo, Oreochromis niloticus; conditions: i.p., day 28; for Anti-P0 IgM titer: P0-my32 1 μg/g co-administrated with 20 μg peptide, Montanide ISA 50, vs P0-my32
Text: as §1, §2, §3, §4, §5, §6, §7, §8

tilapia leukocytes = conditions: in vitro; cited from earlier work
activated macrophages = conditions: mouse, in vivo; cited from earlier work
Aeromonas hydrophila [4] = test: Agglutinating antibodies against Aeromonas hydrophila in common carp; format: in vivo, Cyprinus carpio; conditions: i.p.; inactivated cells 1×10^8 CFU + 20 μg GHRP-6/fish + Montanide ISA 50; vs bacterium without GHRP-6; day 21
Experimental: The experiment was carried out with carps (C. carpio) of 40±10 g. These animals were kept in 600 L aquaria, at a temperature of 28±2° C. Three experimental groups, of 10 carps each, were established and injected by i.p. route with the following immunogens:
Group 1: PBS+Montanide ISA 50.
Group 2: Inactivated A. hydrophila cells (1×10^8 Colony Forming Units, abbreviated CFU)+Montanide ISA 50.
(§9) Group 3: Inactivated A. hydrophila cells (1×10^8 CFU)+20 μg GHRP-6/fish+Montanide ISA 50.
Fish were injected on days 0 and 14, and blood samples were collected from the caudal vein on days 0 and 21. […] The preparation of A. hydrophila cells and the measurement of antibody titers were performed according to previous reports (Yin et al. ((1996) Fish & Shellfish Immunol. 6, 57-69).

[5] = system: C2 antigen, a Dengue virus capsid protein; test: Humoral immune response against C2 antigen in mice, GHRP-6 co-administered; format: in vivo, BALB/c mice; conditions: s.c.; 10 μg C2 + 10 μg GHRP-6, aluminum hydroxide; vs C2 without GHRP-6; day 28
Experimental: The C2 antigen, a Dengue virus capsid protein, was obtained as a recombinant protein in Escherichia coli, with a molecular weight of 15 kDa. To evaluate the humoral and cellular immune response in mice vaccinated with C2, in presence or absence of GHRP-6, 24 female BALB/c mice, 6-weeks old, were selected. They were distributed into 3 groups. Each animal was given an immunogen, according to the experimental group:
Group 2: 10 μg C2 co-administrated with 10 μg GHRP-6
In all groups, the immunogens further comprised aluminum hydroxide, also known as alum. Immunizations were performed by s.c route, on days 0, 15 and 30 of the immunization schedule. Blood samples were taken at days 0 (pre-immune), 7, 16, 21, 28 and 35, to assess total IgG titers.

OVA [6] = test: Humoral immune response against OVA in mice, GHRP-6 co-administered; format: in vivo, BALB/c mice; conditions: for Total IgG titers against OVA: GHRP-6 10 μg + OVA 5 μg/animal, Freund's adjuvant, vs OVA without GHRP-6
Experimental: Thirty-six female BALB/c mice were used. Six study groups, with 6 animals each, were separated. Three groups were immunized by s.c route and the rest of them were treated by i.p route. In all groups, the immunogens were emulsified with Freund's adjuvant.
Group 1: Placebo (phosphate buffered saline, abbreviated PBS). s.c route.
Group 2: Placebo (PBS). i.p. route.
Group 3: GHRP-6 at 10 μg/animal and OVA at 5 μg/animal. s.c. route.
Group 4 GHRP-6 at 10 μg/animal and OVA at 5 μg/animal. i.p route.
Group 5: OVA 5 μg/animal. s.c. route.
Group 6: OVA 5 μg/animal. i.p. route.
Mice received 150 μL of the immunogen in all groups, which was administered to the animals on days 1 and 15 of the immunization schedule. Blood extractions were performed on days 0 (pre-immune serum), 8, 15, 22, 36, 43 and 50. Total IgG titers, IgG1 and IgG2a were evaluated. Complete Freund's Adjuvant (CFA) was used in the first immunization and Incomplete Freund's Adjuvant (IFA) in the next one. The animals of the group immunized with GHRP-6 and OVA, by s.c route, had higher titers (with statistical significance: p<0.05) than those of the group receiving OVA without GHRP-6, by the same route, on days 22, 36, 43 and 50 of the experiment (FIG. 1A). Animals injected with the same immunogens, but by i.p. route, had the same behavior on days 36 and 43 of the experiment (FIG. 1 B).

[7] = system: peptide P0 of R. sanguineus; test: Humoral immune response against peptide P0 of R. sanguineus in mice, GHRP-6 co-administered; format: in vivo, BALB/c mice; conditions: i.p.; 100 μg P0 + 200 μg GHRP-6, Freund's adjuvant; vs P0 without GHRP-6; day 36
Experimental: The peptide P0 is a fragment corresponding to the region of less sequence identity between the ribosomal protein P0 of the tick R. sanguineus and its mammalian host. To evaluate the humoral immune response stimulated by the co-administration of GHRP-6 and P0, 24 female, 6-week old BALB/c mice were selected and divided into three groups of 8 mice. Each animal received 150 μL of immunogen, by i.p route, on days 1, 15 and 29 of the immunization schedule. In the first immunization FCA was employed, and FIA was used in the other two administrations.
Group 3. 100 μg of P0 co-administrated with 200 μg of GHRP-6.
Blood samples were taken on days 0 (pre-immune serum), 8, 16, 21, 28, 36, 43, 50 and 58, to determine the levels of total IgG.

juvenile tilapia = conditions: orally fed; cited from earlier work
Aeromonas hydrophila [8] = test: Controlled challenge with Aeromonas hydrophila in immunized common carp; format: in vivo, Cyprinus carpio; conditions: challenge on day 21 by i.p injection of LD50 of the bacterium; mortality recorded for 7 days
Experimental: The experiment was carried out with common carp (C. carpio) of 30±5 g. These animals were kept in 250 L aquaria, at a temperature of 30±2° C. Three experimental groups, of 20 carps each, were established and the animals were injected by i.p. route with:
Group 1: PBS+Montanide ISA 50
Group 2: Inactivated A. hydrophila cells (1×10^8 CFU)+Montanide ISA 50
as §9
Fish were injected on day 0 and 14. The challenge was performed on day 21, by i.p injection of the lethal dose 50 (LD50) of the bacterium, and the mortality in each group was recorded for 7 days. The relative survival rate (RSR) was calculated as: RSR(%)=(% mortality of controls−% mortality of treated animals)/(% mortality of controls)×100.

rainbow trout leucocytes = conditions: cited from earlier work
newly hatching chickens = conditions: dose of 100 ng in ovo, day 10 of incubation; cited from earlier work
[9] = serum of day 36, s.c and i.p routes, OVA with vs without GHRP-6
[10] = Group 3 (with GHRP-6) vs Group 2

## A233: growth hormone secretagogue peptide, structural analogue of GHRP-6 (GKFDLSPEHQ; lactam 2-4 (inferred))
OVA [1]
  Anti-OVA antibody titers (total IgG): significant increase
my32
  Anti-my32 IgM antibody titers: increase
P0 [2]
  Anti-P0 IgM antibody titers: same effect
Tilapia larvae
  Antioxidant defense, enzyme superoxide dismutase: stimulates
  Antiprotease activity: stimulates
  Lectin titers: stimulates
P0 [3]
  Anti-P0 IgM titer: increase
Tilapia leukocytes
  Production of indicators of phagocytic activity, such as superoxide anion: stimulated

## GHRP-2
Activated macrophages
  Arthritis: attenuated
  Release of interleukin 6 (IL-6) from activated macrophages: significantly inhibited
  Release of nitric oxide from activated macrophages: significantly inhibited

## His-D-Trp-Ala-Trp-D-Phe-Lys-NH2 (H[dW]AW[dF]K-NH2) [GHRP-6, synthetic growth hormone releasing peptide, hexamer, used as molecular adjuvant]
Aeromonas hydrophila [4]
  Titers of agglutinating antibodies against A. hydrophila: significantly higher
[5]
  Anti-C2 IgG titer: significant increase
OVA [6]; i.p. route, days 36 and 43
  Total IgG titers against OVA: same behavior
OVA [6]; intraperitoneal route, mean of the six animals in the group
  IgG1/IgG2a: significantly superior
OVA [6]; s.c. route, days 22, 36, 43 and 50, p<0.05
  Total IgG titers against OVA: higher titers
OVA [6]; [9]
  IgG1 titers: higher
  IgG2a titers: No significant differences
my32; [10]
  Number of anti-my32 responder animals, IgM titers greater than 1:1000: higher
my32
  Anti-my32 IgM antibody titers: increase
[7]
  Anti-P0 IgG titers: significant increase
P0 [2]
  Anti-P0 IgM antibody titers: increase
P0 [3]; [10]
  Number of anti-P0 responder animals, IgM titers greater than 1:1000: higher
P0 [3]
  Anti-P0 IgM titer: same effect
Juvenile tilapia
  Lectin titers: increase
  Number of intraepithelial lymphocytes of the gastric mucosa: increase
Aeromonas hydrophila [8]
  Relative survival rate (RSR): 95%

## [D-Lys3]-GHRP-6
Rainbow trout leucocytes; prior incubation before ghrelin
  Production of reactive oxygen species (O^2′—) after prior incubation with antagonist: decreased

## ghrelin: endogenous ligand for the growth hormone secretagogues receptor (GHS-R) (GSSFLSPEHQRVQQRKESKKPPAKLQPR; ends and bridges not checked; UniProt Q9UBU3 24-51, looked up)
Activated macrophages
  Arthritis: attenuated
  Release of interleukin 6 (IL-6) from activated macrophages: significantly inhibited
  Release of nitric oxide from activated macrophages: significantly inhibited
Rainbow trout leucocytes; in vitro
  Levels of GH messenger ribonucleic acid: increases
  Production of superoxide anion: increases
  Superoxide dismutase: increases
Newly hatching chickens
  Count of heterophil, basophils and eosinophils, and heterophil/lymphocyte ratio: increase
  Lymphocytes: decreased
